Data reported in article PMC5915154, “Aloe-emodin as drug candidate for cancer therapy” (Oncotarget, 2018).

How the values were obtained:
Assay type in all cases: cell-based, human
[1] = system: HCT116 (p53-/-) knockout colon cancer cells; assay: Resazurin reduction assay, HCT116 (p53-/-)
Description: The cell lines used in the present work, their origins and maintenance conditions were previously reported. In brief, drug-sensitive CCRF-CEM and multidrug resistant P-glycoprotein-over-expressing CEM/ADR5000 leukemia cells, MDA-MB-231-pcDNA3 breast cancer cells and their transfectant subline MDA-MB-231-BCRP clone 23, HCT116 (p53^+/+) colon cancer cells and its knockout clone HCT116 (p53^-/-), U87.MG glioblastoma multiform cells and their transfectant subline U87.MGΔEGFR as well as HEK293 human embryonic kidney cells transfected with or without a cDNA for ABCB5 were used. The human peripheral mononuclear cells (PMNC) were isolated from fresh blood samples of a healthy donor by using Histopaque® (Sigma-Aldrich, Taufkirchen, Germany).
Resazurin reduction assay was conducted to test the cytotoxicity of the compounds. This assay is based on the reduction of resazurin to resorufin by viable cells. […] Briefly, aliquots of 0.5×10^4 adherent cells which were allowed to attach overnight and 1×10^4 suspension cells per well were seeded in 96-well-plates with or without the addition of varying concentrations of the test substance to get a total volume of 200 μL/well. After 72 h incubation and addition of resazurin (Sigma-Aldrich) for 4 h, staining was measured by an Infinite M2000 ProTM plate reader (Tecan, Germany) using an excitation wavelength of 544 nm and an emission wavelength of 590 nm. […]

[2] = system: mRNA expression (DUSP6, HHEX, MCMDC2, CRCP) in CCRF-CEM cells; assay: Microarray-based mRNA expression profiling; conditions: CCRF-CEM treated with IC50 for 48 h vs DMSO; FC: fold change
Protocol: We performed microarray hybridizations to find clues on the possible mechanisms of action of Aloe-emodin. CCRF-CEM cells were treated with the IC50 of Aloe-emodin or DMSO for 48 h. Using Chipster software, 1712 genes were deregulated upon Aloe-emodin treatment in comparison with DMSO treatment as control. These genes were subsequently subjected to Ingenuity Pathway Analysis (IPA) to obtain profiles of possibly affected signaling pathways. The most pronounced molecular and cellular functions identified by IPA were: cell death and survival, cellular growth and proliferation, cellular development, gene expression, cellular function and maintenance (Figure 4A).
Total RNA was isolated by InviTrap Spin Universal RNA Mini kit (Stratec Molecular, Berlin, Germany) according to the manufacturer’s instructions. The quality control of total RNA, probe labeling, hybridization, scanning and data analysis was performed in the Genomics and Proteomics Core Facility at the German Cancer Research Center (DKFZ, Heidelberg, Germany). Details have been previously described. The Chipster software was used to filter the set of differentially expressed genes obtained from microarray hybridization (http://chipster.csc.fi/) with a p value lower than 0.05. These filtered genes with fold-changes of more than 1-fold were selected for Ingenuity Pathways Analysis Software (http://www.ingenuity.com/ Ingenuity Systems, Redwood City, CA, USA) to obtain profiles of genetic networks and signaling pathways. The protocol has been recently reported by us.

[3] = system: mRNA expression (DUSP6, HHEX, MCMDC2, CRCP) in CCRF-CEM cells; assay: qPCR validation of microarray data; conditions: CCRF-CEM treated vs untreated, normalized to GAPDH
Protocol: Primer sequences of HHEX, MCMDC2 and CRCP were designed using NCBI and GenScript Real Time PCR Primer Design (https://www.genscript.com/ssl-bin/app/primer) websites. DUSP6, HHEX, MCMDC2 and CRCP primers were synthesized by Eurofins MWG Operon (Ebersberg, Germany) and their sequence specificities were checked by NCBI Primer-Blast (http://www.ncbi.nlm.nih.gov/tools/primer-blast). The reaction properties of primers were calculated by Eurofins genomics (https://www.eurofinsgenomics.eu/en/dna-rna-oligonucleotides/oligo-design-more/oligo-property-scan.aspx). The primer sequences were as follows: DUSP6, forward (5′–3′): […], reverse (5′–3′): […] [75]; HHEX, forward: […], reverse: […]; MCMDC2, forward: […], reverse: […]; CRCP, forward: […], reverse: […]. Total RNA was isolated by InviTrap Spin Universal RNA Mini kit (Stratec Molecular) according to the manufacturer’s instruction. One microgram RNA was converted to cDNA using RevertAid H Minus First Strand cDNA Synthesis Kit (Thermo Scientific). The mRNA levels were analyzed by using of 5×Hot Start Tag EvaGreen® qPCR Mix (no ROX) (Axon Labortechnik, Kaiserslautern, Germany) and CFX384™ Real-Time PCR Detection System (Bio-Rad, Munich, Germany). RT-PCR was performed with an initial denaturation at 95°C for 10 second followed by 40 cycles including strand separation at 95°C for 15 s, annealing at 62°C for 30 s and extension at […] for 1 min. The GAPDH, HPRT1 and RLP13 genes were used as housekeeping genes. The expression data were normalized using Bestkeeper software. […] Therefore, GAPDH was used for normalization. Forward and reverse primer sequences of GAPDH were […] for forward and […] for reverse, respectively.
Furthermore, forward and reverse primer sequences of HPRT1 were […] for forward and […] for reverse as well as of RLP13A were TATGCTGCCCCACAAAACC for forward and […] for reverse, respectively. • The quantification method was done as follow: • ΔCt = Ct gene test – Ct endogenous control. • ΔΔCt = ΔCt sample1 – ΔCt calibrator. • RQ = Relative quantification = 2-ΔΔCt.
The RQ is the fold-change compared to the calibrator (untreated sample, time zero, etc.). The calibrator has an RQ value of 1. All samples were compared to the calibrator.

O=C1c2cccc(O)c2C(=O)c2c(O)cc(CO)cc21 [Aloe-emodin]
degree of resistance (collateral sensitivity) ([1]; HCT116 (p53-/-) knockout cells vs HCT116 (p53+/+)): 0.68 fold
IC50 ([1]; Homo sapiens, HCT-116, HCT116(p53-/-), resazurin assay, 72 h): 11.2 µM
Microarray data (FC), CRCP [2]: -2.219 FC
Microarray data (FC), DUSP6 [2]: 2.403 FC
Microarray data (FC), HHEX [2]: 2.321 FC
Microarray data (FC), MCMDC2 [2]: -2.227 FC
qPCR data (FC), CRCP [3]: -2.63 FC
qPCR data (FC), DUSP6 [3]: 1.40 FC
qPCR data (FC), HHEX [3]: 2.23 FC
qPCR data (FC), MCMDC2 [3]: -2.47 FC
